Assay results as given in patent US10947242B2, “[1,2,4]triazolo[1,5and#8208;A]pyrimidine compounds as PDE2 inhibitors” (Janssen Pharmaceutica NV, priority 2016, dated 2021).
Several values for one entry are separate records, joined by “and”; a condition that tells them apart may be missing. Equal values may be shown once. Read-outs that look alike come from different tables or passages of the source.

Legend:
[1] = biological target: T1, Human recombinant PDE2A (hPDE2A) (Homo sapiens, UniProt O00408); assay: In vitro assay PDE2A (SPA, 3H-cGMP hydrolysis); format: biochemical; conditions: for Emax: read-out: hPDE2A Emax
T1 construct: His tag (inferred from metal chelate purification); made in house; host or cells: Sf9 insect cells (baculovirus)
T1 sequence (O00408 whole entry): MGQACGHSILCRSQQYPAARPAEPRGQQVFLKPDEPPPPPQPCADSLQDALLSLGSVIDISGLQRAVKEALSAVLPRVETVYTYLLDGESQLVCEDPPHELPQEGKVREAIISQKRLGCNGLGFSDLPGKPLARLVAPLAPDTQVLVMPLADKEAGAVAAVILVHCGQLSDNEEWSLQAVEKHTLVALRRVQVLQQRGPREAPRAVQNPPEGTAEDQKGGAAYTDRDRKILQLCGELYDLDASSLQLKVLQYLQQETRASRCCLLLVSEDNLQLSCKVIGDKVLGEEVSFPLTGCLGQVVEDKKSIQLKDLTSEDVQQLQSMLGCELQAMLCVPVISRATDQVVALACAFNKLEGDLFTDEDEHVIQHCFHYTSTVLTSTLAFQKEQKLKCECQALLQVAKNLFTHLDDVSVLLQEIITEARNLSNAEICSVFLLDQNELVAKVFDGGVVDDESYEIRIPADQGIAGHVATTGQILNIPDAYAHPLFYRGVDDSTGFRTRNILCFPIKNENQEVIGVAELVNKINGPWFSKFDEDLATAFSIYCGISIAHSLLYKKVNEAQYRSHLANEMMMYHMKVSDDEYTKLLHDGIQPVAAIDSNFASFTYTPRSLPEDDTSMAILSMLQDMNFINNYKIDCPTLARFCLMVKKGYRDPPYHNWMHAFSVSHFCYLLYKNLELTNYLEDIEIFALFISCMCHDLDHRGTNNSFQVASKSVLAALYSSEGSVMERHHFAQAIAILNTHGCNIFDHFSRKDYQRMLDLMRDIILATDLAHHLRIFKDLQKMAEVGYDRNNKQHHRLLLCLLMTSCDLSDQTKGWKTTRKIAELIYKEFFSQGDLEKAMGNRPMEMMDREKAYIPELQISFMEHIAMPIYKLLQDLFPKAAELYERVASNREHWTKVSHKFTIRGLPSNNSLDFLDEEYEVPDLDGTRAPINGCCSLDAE

[2] = biological target: T2, PDE2A (Rattus norvegicus, UniProt Q01062); assay: PDE2 occupancy by test compounds, ex-vivo autoradiography with [3H]B-17a; format: in vivo, Male Wistar rats; conditions: for receptor occupancy at 10 mg/kg: percentage receptor occupancy, ex-vivo autoradiography, striatum; for ED50: read-out: PDE Occupancy ED50
T2 construct: Twenty μm-thick striatal sections were cut; from tissue; host or cells: rat brain, striatal sections
T2 sequence (Q01062 1-928): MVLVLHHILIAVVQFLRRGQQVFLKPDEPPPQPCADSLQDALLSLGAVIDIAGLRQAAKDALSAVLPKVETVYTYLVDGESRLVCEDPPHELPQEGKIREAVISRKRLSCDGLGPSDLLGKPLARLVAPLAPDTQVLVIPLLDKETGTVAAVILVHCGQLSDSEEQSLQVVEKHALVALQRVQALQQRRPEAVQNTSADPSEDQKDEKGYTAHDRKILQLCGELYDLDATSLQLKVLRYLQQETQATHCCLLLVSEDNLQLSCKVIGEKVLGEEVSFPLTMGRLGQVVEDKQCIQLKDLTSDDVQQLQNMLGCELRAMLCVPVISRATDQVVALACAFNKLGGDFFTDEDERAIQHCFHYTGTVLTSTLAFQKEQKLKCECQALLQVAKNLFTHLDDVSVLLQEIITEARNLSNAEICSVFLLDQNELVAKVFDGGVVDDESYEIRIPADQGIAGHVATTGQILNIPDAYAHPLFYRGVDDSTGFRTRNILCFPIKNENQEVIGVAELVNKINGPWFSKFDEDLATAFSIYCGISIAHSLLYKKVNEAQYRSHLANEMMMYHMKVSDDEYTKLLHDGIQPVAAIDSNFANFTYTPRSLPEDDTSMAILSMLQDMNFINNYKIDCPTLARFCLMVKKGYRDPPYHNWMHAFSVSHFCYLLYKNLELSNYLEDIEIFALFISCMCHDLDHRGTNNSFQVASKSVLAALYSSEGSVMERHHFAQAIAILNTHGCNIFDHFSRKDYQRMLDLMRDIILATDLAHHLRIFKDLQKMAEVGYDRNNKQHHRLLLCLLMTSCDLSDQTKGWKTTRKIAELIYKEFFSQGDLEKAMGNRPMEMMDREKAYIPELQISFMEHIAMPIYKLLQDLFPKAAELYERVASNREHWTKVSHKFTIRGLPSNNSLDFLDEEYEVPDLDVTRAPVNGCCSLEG

[3] = biological target: T3, Human recombinant PDE10A (hPDE10A) (Homo sapiens, UniProt Q9Y233); assay: In vitro assay PDE10A, human clone (SPA, 3H-cAMP hydrolysis); format: biochemical
T3 construct: His tag (inferred from metal chelate purification); made in house; host or cells: Sf9 insect cells (baculovirus)
T3 sequence (Q9Y233 267-1055): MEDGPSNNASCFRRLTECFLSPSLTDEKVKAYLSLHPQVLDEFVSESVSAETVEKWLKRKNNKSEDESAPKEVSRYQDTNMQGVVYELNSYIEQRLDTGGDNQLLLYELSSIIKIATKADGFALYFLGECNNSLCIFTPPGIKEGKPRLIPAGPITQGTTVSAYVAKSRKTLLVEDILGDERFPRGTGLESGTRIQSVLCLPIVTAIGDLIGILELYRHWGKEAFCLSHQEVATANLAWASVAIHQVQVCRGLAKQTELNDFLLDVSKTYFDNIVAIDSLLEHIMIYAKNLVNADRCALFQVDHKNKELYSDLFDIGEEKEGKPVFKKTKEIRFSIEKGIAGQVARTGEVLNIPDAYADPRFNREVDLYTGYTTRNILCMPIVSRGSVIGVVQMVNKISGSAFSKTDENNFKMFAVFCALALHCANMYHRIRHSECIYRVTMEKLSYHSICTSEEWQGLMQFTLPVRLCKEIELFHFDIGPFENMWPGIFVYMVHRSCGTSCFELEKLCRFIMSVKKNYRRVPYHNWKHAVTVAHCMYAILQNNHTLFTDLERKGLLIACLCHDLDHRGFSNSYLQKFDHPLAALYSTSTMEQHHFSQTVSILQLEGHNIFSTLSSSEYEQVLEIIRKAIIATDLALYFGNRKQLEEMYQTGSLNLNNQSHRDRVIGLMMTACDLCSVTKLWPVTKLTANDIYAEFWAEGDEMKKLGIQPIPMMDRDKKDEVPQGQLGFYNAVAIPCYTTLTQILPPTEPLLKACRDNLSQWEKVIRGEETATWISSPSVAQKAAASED
Method in brief: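 Hydrolysis of 3H-cAMP (60 nM cAMP, 0.008 μCi tracer) proceeded for 60 min at room temperature, with the product detected by SPA bead scintillation counting. The enzyme was hPDE10A from baculovirus-infected Sf9 cells in Tris pH 7.8 buffer with MgCl2 and EGTA, and compounds were at 1% DMSO final. Blanks lacked enzyme.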

[4] = biological target: T4, Human recombinant PDE3A (hPDE3A) (Homo sapiens, UniProt Q14432); assay: In vitro assay PDE3A (SPA, 3H-cAMP hydrolysis); format: biochemical; conditions: for IC50: hPDE3B pIC50, read-out: pIC50 (converted); for Emax: read-out: hPDE3B Emax, read-out: Emax;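 for all read-outs here: the method names PDE3A and the table heading PDE3B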
T4 construct: purchased Scottish Biomedical; host or cells: Sf9 insect cells
T4 sequence (Q14432 whole entry): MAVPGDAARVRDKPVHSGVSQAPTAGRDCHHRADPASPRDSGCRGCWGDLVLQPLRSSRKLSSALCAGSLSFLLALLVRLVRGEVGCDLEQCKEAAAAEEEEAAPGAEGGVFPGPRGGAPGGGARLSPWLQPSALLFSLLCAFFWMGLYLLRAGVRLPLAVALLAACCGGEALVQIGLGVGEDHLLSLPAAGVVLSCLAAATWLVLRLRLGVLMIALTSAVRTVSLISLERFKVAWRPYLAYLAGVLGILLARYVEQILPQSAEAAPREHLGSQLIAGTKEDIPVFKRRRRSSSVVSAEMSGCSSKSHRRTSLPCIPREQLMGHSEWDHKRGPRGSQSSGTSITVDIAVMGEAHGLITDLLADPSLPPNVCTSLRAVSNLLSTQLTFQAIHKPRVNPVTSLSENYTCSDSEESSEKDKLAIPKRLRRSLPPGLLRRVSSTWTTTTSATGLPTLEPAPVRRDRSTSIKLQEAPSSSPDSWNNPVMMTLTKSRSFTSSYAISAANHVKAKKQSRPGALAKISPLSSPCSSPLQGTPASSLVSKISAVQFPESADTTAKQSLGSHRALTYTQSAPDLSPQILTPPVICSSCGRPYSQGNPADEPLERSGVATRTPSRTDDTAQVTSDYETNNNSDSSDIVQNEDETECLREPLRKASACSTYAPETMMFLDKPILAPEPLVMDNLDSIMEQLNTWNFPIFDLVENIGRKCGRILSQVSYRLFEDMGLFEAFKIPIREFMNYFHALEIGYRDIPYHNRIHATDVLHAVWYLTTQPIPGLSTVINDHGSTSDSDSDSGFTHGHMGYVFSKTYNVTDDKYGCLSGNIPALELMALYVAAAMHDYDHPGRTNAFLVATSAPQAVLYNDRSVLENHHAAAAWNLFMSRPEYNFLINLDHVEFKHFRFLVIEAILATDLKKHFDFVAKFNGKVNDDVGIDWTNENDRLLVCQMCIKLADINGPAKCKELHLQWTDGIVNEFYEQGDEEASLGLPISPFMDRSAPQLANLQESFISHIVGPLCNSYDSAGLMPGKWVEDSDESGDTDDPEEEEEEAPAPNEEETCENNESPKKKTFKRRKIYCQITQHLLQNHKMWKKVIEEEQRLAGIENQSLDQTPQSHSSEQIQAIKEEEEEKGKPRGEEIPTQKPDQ
Method in brief: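 Radiometric SPA measuring [3H]-cAMP hydrolysis (0.4 μM cAMP, 2.4 μCi/ml) over 60 min at room temperature, in Tris pH 7.8 buffer with MgCl2 and EGTA, 1% DMSO. Enzyme: recombinant human brain PDE3A expressed in Sf9 cells, used as partially purified lysate. Counts compared with enzyme-free blanks and vehicle controls.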

[5] = read-out: hPDE2A pIC50 (converted)
[6] = human clone (h), default, read-out: hPDE10A2 Emax
[7] = human clone (h), default, read-out: hPDE10A2 pIC50 (converted)
[8] = human clone by default (no (r) mark), read-out: hPDE10A2 or rPDE10A2 Emax
[9] = human clone by default (no (r) mark), read-out: hPDE10A2 or rPDE10A2 pIC50 (converted)
[10] = human recombinant PDE2A, 10 μM cGMP substrate, read-out: hPDE2A pIC50 (converted)
[11] = hPDE2A pIC50, human recombinant PDE2A, 10 μM cGMP substrate
[12] = route PO (oral), drug dose producing 50% receptor occupancy

Row | SMILES | Emax [1] | IC50 [1, 5] | receptor occupancy at 10 mg/kg ([2]; po, route PO (oral)) | melting point | Emax [3, 6] | IC50 [3, 7] | Emax [3, 8] | IC50 [3, 9] | IC50 [4] | Emax [4] | IC50 [1, 10] | Emax ([1]; human recombinant PDE2A) | also measured
1 | Cc1cc([C@@H]2CN(C(=O)c3cc(Cl)ncc3C(F)(F)F)CC[C@H]2C)n2ncnc2n1 [Compound 270] | 100% | 2.34 nM | 6% | 213.25 °C | 96% | 269 nM | 96% | 269 nM | > 10000 nM | 29% | – | – | –
2 | Cc1cc(C(=O)N2[C@H]3CC[C@H](c4cc(C(F)F)nc5ncnn45)[C@@H]2CC3)cc(C)n1 [Compound 29] | 101% | 1.51 nM | – | 176.52 °C | 90% | 692 nM | – | – | > 10000 nM | – | 1.51 nM | 101% | receptor occupancy at 10 mg/kg ([2]; route SC (subcutaneous)): 31%; hPDE3B Emax [4]: 18
3 | Cc1cc(C(=O)N2CC[C@@H](C)[C@H](c3cc(C(F)F)nc4ncnn34)C2)cc(F)c1F [Compound 189] | 100% | – | 9% | 152.03 °C | 96% | 186 nM | – | – | 2750 nM | 80% | – | – | IC50 ([1]; hPDE2A pIC50): 5.13 nM; IC50 [1, 11]: 5.13 nM
4 | Cc1cc(C(=O)N2CC[C@@H](C)[C@H](c3cc(C(F)F)nc4ncnn34)C2)cc(C(F)F)n1 [Compound 321] | 101% | – | 73% | 137.5 °C | – | – | 97% | 309 nM | 8130 nM | 45% | – | – | IC50 ([1]; hPDE2A pIC50): 2.19 nM; ED50 ([2]; po): 3.37 mg/kg
5 | Cc1cc(C)cc(C(=O)N2CC[C@@H](C)[C@H](c3cc(C(F)F)nc4ncnn34)C2)c1 [Compound 123] | 99% | – | 4% | 203.87 °C | 99% | 91.2 nM | – | – | 1620 nM | 87% | – | – | IC50 ([1]; hPDE2A pIC50): 1.95 nM; IC50 [1, 11]: 1.95 nM
6 | C[C@@H]1CCN(C(=O)c2cn(C)c3ccccc23)C[C@H]1c1cc(C(F)F)nc2ncnn12 [Compound 328] | 100% | 0.631 nM | -18% | 247.48 °C | – | – | 100% | 61.7 nM | 1480 nM | 90% | – | – | –
7 | C[C@@H]1CCN(C(=O)c2ccc3cc[nH]c3c2)C[C@H]1c1cc(C(F)F)nc2ncnn12 [Compound 106] | 100% | 0.891 nM | 0% | 273.02 °C | 99% | 21.4 nM | – | – | 389 nM | 98% | 0.891 nM | 100% | –
8 | Cc1cc(Cl)cc(C(=O)N2CC[C@@H](C)[C@H](c3cc(C(F)F)nc4ncnn34)C2)c1 [Compound 102] | 100% | – | -4% | 215.44 °C | 95% | 26.3 nM | – | – | > 1000 nM | 44% | – | – | IC50 ([1]; hPDE2A pIC50): 0.676 nM; IC50 [1, 11]: 0.676 nM
9 | Cc1cc(C(=O)N2CC[C@@H](C)[C@H](c3cc(C(F)F)nc4ncnn34)C2)cc(C(F)(F)F)n1 [Compound 132] | 101% | 2.51 nM | – | 116.57 °C | 98% | 200 nM | – | – | > 10000 nM | 46% | 2.51 nM | 101% | ED50 [2, 12]: 5 mg/kg; receptor occupancy at 10 mg/kg ([2]; sc, route SC (subcutaneous)): 76%
10 | O=C(c1ccc(Cl)c(Cl)c1)N1[C@H]2CC[C@H](c3cc(C(F)F)nc4ncnn34)[C@@H]1CC2 [Compound 356] | 99% | 5.37 nM | – | 187.93 °C | – | – | 92% | 933 nM | 5890 nM | 65% | – | – | receptor occupancy at 10 mg/kg ([2]; route PO (oral)): 51%; ED50 ([2]; po): 5.55 mg/kg
11 | C[C@@H]1CCN(C(=O)c2ccnc(C3CC3)c2F)C[C@H]1c1cc(C(F)F)nc2ncnn12 [Compound 120] | 100% | 1.74 nM | 12% | 173.99 °C | 96% | 200 nM | – | – | 708 nM | 95% | 1.74 nM | 100% | –
12 | COc1cc(C(=O)N2CC[C@@H](C)[C@H](c3cc(C(F)F)nc4ncnn34)C2)cc(Cl)n1 [Compound 108] | 100% | 0.912 nM | 65% | 151.39 °C | 99% | 52.5 nM | – | – | 2690 nM | 80% | 0.912 nM | 100% | ED50 [2, 12]: 4.8 mg/kg
13 | C[C@@H]1CCN(C(=O)c2cc(Cl)cc(Cl)c2)C[C@H]1c1cc(C(F)F)nc2ncnn12 [Compound 334] | 100% | – | 17% | 239.87 °C | – | – | 98% | 100 nM | 2340 nM | 84% | – | – | IC50 ([1]; hPDE2A pIC50): 2.45 nM
14 | O=C(c1ccc2ncsc2c1)N1[C@H]2CC[C@H](c3cc(C(F)F)nc4ncnn34)[C@@H]1CC2 [Compound 25a] | 100% | 1.07 nM | – | 240.33 °C | 94% | 589 nM and 389 nM | – | – | 8710 nM | 54% | 0.708 nM | 100% | receptor occupancy at 10 mg/kg ([2]; route SC (subcutaneous)): 66%; ED50 ([2]; po): 4 mg/kg; hPDE10A2 Emax ([3]; human clone (h), default): 96
15 | Cc1cc(C(=O)N2CC[C@@H](C)[C@H](c3cc(C(F)F)nc4ncnn34)C2)cnc1C [Compound 49] | 99% | 2.09 nM | – | 263.81 °C | 95% | 513 nM | – | – | 5750 nM | 42% | 2.09 nM | 99% | receptor occupancy at 10 mg/kg ([2]; sc, route SC (subcutaneous)): 12%
16 | Cc1csc(C(=O)N2CC[C@@H](C)[C@H](c3cc(C(F)F)nc4ncnn34)C2)c1 [Compound 126] | 101% | 2.09 nM | 31% | 114.32 °C | 97% | 112 nM | – | – | 6030 nM | 65% | 2.09 nM | 101% | –
17 | C[C@@H]1CCN(C(=O)c2ccc(Cl)c(C3CC3)c2)C[C@H]1c1cc(C(F)F)nc2ncnn12 [Compound 72] | 100% | 1.02 nM | 0% | 177.6 °C | 92% | 105 nM | – | – | > 1000 nM | 46% | 1.02 nM | 100% | –
18 | Cc1cc(C(=O)N2CC[C@@H](C)[C@H](c3cc(C(F)F)nc4ncnn34)C2)cc(OC(F)F)n1 [Compound 281] | 100% | 1.66 nM | 57% | 114.59 °C | – | – | 99% | 110 nM | 2240 nM | 87% | – | – | ED50 [2, 12]: 4.2 mg/kg
